According to patent US20160082066A1, “Method Use of Polymethoxyflavones (PMFs) in Body Composition Management” (priority 2014, published 2016):

Tests used:
[1] = system: 3T3-L1 preadipocytes; assay: Oil Red O lipid accumulation in differentiating 3T3-L1 preadipocytes; type: cell-based; conditions: DMI 2 days, then insulin medium with substance 8 days; absorbance at 520 nm; FIG. 1-3
Procedure: Ten days after the initiation of differentiation, lipid accumulation was measured by Oil Red O staining.
3T3-L1 preadipocytes were incubated with DMI (DMEM with IBMX, DEX and insulin) for two days, and then replaced with DMEM medium containing insulin with or without ECG, EGCG and PMFs at indicated concentrations, respectively for 8 days. The 3T3-L1preadipocytes were stained with Oil Red O and photographed. Lipid content was extracted from Oil Red O stained cells by 2-propanol and quantified with spectrophotometric analysis at 520 nm.
3T3-L1 preadipocytes were incubated with DMI (DMEM with IBMX, DEX and insulin) for two days, and then replaced with DMEM medium containing insulin with or without ECG, EGCG and PMFs at indicated concentrations, respectively for 8 days. The 3T3-L1preadipocytes were stained with Oil Red 0. Lipid content was extracted from Oil Red O stained cells by 2-propanol and quantified with spectrophotometric analysis at 520 nm.
3T3-L1 preadipocytes were incubated with DMI (DMEM with IBMX, DEX and insulin) for two days, and then replaced with DMEM medium containing insulin with or without Lychee extracts and PMFs, or in combination at indicated concentrations, respectively for 8 days. […] Lipid content was extracted from Oil Red O stained cells by 2-propanol and quantified with spectrophotometric analysis at 520 nm.

[2] = target: T1, catechol-O-methyltransferase (Homo sapiens, UniProt P21964); conditions: cited from earlier work
T1 sequence (P21964 1-271): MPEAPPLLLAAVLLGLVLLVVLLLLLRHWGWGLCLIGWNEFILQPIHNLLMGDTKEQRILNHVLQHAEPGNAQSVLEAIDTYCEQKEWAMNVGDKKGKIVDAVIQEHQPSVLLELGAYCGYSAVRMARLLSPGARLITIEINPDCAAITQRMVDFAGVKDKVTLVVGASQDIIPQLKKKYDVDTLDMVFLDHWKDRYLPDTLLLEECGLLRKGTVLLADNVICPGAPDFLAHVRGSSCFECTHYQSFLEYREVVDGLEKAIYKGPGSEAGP

[3] = EGCG stand alone; young, healthy adults; cited from earlier work
[4] = system: 3T3-L1 preadipocytes; conditions: tissue culture; cited from earlier work
[5] = system: high-fat diet-induced obesity in mice; conditions: cited from earlier work

Compound | lipid accumulation in differentiated adipocytes (Oil Red O staining) [1] | catechol-O-methyltransferase activity [2] | resting metabolic rate (RMR) and thermal effects of feeding (TEF) [3] | differentiation of 3T3-L1 preadipocytes into adipocytes [4] | obesity and insulin resistance [5]
O=C(O[C@@H]1Cc2c(O)cc(O)cc2O[C@@H]1c1ccc(O)c(O)c1)c1cc(O)c(O)c(O)c1 [ECG, epicatechin gallates] | decreased only slightly |  |  |  | 
O=C(O[C@@H]1Cc2c(O)cc(O)cc2O[C@@H]1c1cc(O)c(O)c(O)c1)c1cc(O)c(O)c(O)c1 [EGCG, epigallocatechin gallates] | decreased only slightly | inhibits | would not increase |  | 
COc1ccc(-c2cc(=O)c3c(OC)c(OC)c(OC)c(OC)c3o2)cc1OC [nobiletin] |  |  |  | potently suppressing | alleviating obesity and insulin resistance
